# According to patent publication US7906498B2, “Cholesterol as an antibiotic for Streptococcus pneumoniae” (priority 2005, dated 2011):
# Tests used:
# [1] = system: S. pneumoniae strains Avery's, R6, and TIGR4; assay: In vitro incubation of log-phase S. pneumoniae with cholesterol (optical density, plating); assay type: cell-based, Streptococcus pneumoniae; details: 3 hours
# Procedure: To determine if cholesterol is bactericidal, log-phase S. pneumoniae were incubated with cholesterol. Three S. pneumoniae strains, Avery's, R6, and TIGR4, were diluted from overnight cultures and grown to log phase (A600=0.3). These bacteria were then incubated with 1% cholesterol in 20% glycerol, 20% glycerol alone, or PBS. The optical density of each strain was determined once per hour for 3 hours, and bacterial loads were determined by plating dilutions of the bacteria onto chocolate agar. […] While cholesterol prevented growth in vitro (outside the cornea), cholesterol had no effect on bacterial growth in the cornea. (See above). Topical application of cholesterol could be used to decrease the numbers of S. pneumoniae on the outside surface of the cornea, and inhibit bacterial infiltration of the corneal surface.
# alpha-toxin = alpha-toxin (Staphylococcus aureus, UniProt P09616); details: in vivo
# alpha-toxin, sequence (P09616 27-319 limits assumed): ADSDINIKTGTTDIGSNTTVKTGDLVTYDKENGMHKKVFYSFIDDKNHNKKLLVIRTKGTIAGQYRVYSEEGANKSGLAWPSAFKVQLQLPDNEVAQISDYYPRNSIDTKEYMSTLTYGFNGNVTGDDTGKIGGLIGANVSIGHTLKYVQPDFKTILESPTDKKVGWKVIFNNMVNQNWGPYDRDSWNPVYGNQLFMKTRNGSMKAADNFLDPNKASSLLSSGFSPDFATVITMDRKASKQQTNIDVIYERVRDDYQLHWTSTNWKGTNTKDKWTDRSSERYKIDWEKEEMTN
# [2] = Test whether cholesterol independently causes inflammation in rabbit corneas (topical drops or intrastromal injection); assay type: in vivo; details: one cornea, examined up to 48 hours post-injection
# Procedure: The applications were 30 minutes apart for the first hour, and the remaining applications were 1 hour apart. The corneas were examined periodically for several days. […] The possible effect of cholesterol injected into the corneal stroma was also examined. […] The corneas were examined every 2 hours for the first 8 hours, and then at 24, 30, and 48 hours post-injection.
# Staphylococcus aureus = assay: Rabbit Staphylococcus aureus keratitis treated with cholesterol; assay type: in vivo; details: cholesterol 1% in 20% glycerol
# [3] = system: encapsulated S. pneumoniae; assay: Rabbit S. pneumoniae keratitis, slit lamp examination (SLE) score; details: topical 1% cholesterol in 20% glycerol, 20 and 24 hours post-infection
# [4] = system: encapsulated S. pneumoniae; assay: Bacterial load in infected rabbit corneas; assay type: in vivo, Streptococcus pneumoniae; details: topical application
# Procedure: Sacrifice of the rabbits occurred immediately following the last SLE time (48 hours post-infection) to avoid unnecessary pain. Corneas were harvested for bacterial quantification or for histopathologic analysis. […] Bacterial loads were determined for control corneas (treated with 20% glycerol only) and corneas treated with the topical cholesterol (1% in 20% glycerol). The bacterial load in the control corneas ranged from 2.48 to 6.60 log colony-forming units, while in the treated corneas the load was 3.68 to 6.59 log colony-forming units.
smiles,measurement,setting,value
CC(C)CCC[C@@H](C)[C@H]1CC[C@H]2[C@@H]3CC=C4C[C@@H](O)CC[C@]4(C)[C@H]3CC[C@]12C [cholesterol],effect on bacterial growth in vitro,"[1]; strain Avery's, 1% cholesterol in 20% glycerol",prevented the growth
same,effect on bacterial growth in vitro,"[1]; strain R6, 1% cholesterol in 20% glycerol",prevented the growth
same,reduction of pathology associated with alpha-toxin,alpha-toxin,ineffective
same,inflammation or adverse effect after injection into corneal stroma,[2]; […],No inflammation or adverse effect was observed
same,inflammation or adverse effect after injection into corneal stroma,[2]; injection of 0.5% cholesterol in 10% glycerol,No inflammation or adverse effect was observed
same,inhibition of damaging effects in S. aureus-infected corneas,Staphylococcus aureus,ineffective
same,"corneal severity (SLE), treated versus untreated corneas",[3],essentially the same
same,bactericidal effect on bacteria once inside the cornea,[4],does not have a bactericidal effect
